# Results reported in the supplement of paper PMC10307832.
# Experiments:
# Assay in all cases: relative viability (nuclei count vs DMSO), 5 days (fraction); higher = more cells survive
# Sorafenib + Bortezomib = compound: CNC(=O)c1cc(Oc2ccc(NC(=O)Nc3ccc(Cl)c(C(F)(F)F)c3)cc2)ccn1 [Sorafenib] + CC(C)C[C@H](NC(=O)[C@H](Cc1ccccc1)NC(=O)c1cnccn1)B(O)O [Bortezomib] (partner 0.002 µM)
# In short: (§1)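 Lung cancer cell lines, seeded in 1536-well plates, were treated the following day by pin tool with a single drug or with five library-drug doses (not always all listed) in √10 steps on top of a fixed anchor-drug dose. Cells were fixed and nuclei stained in one step after 5 days, and nuclei were counted. Relative viability is the nuclei count for treated wells divided by that for vehicle wells, reported as medians of duplicate plates.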
# Sorafenib + Luminespib = compound: CNC(=O)c1cc(Oc2ccc(NC(=O)Nc3ccc(Cl)c(C(F)(F)F)c3)cc2)ccn1 [Sorafenib] + CCNC(=O)c1noc(-c2cc(C(C)C)c(O)cc2O)c1-c1ccc(CN2CCOCC2)cc1 [Luminespib] (partner 0.01 µM)
# In short: as §1
# Sorafenib + Alpelisib = compound: CNC(=O)c1cc(Oc2ccc(NC(=O)Nc3ccc(Cl)c(C(F)(F)F)c3)cc2)ccn1 [Sorafenib] + Cc1nc(NC(=O)N2CCC[C@H]2C(N)=O)sc1-c1ccnc(C(C)(C)C(F)(F)F)c1 [Alpelisib] (partner 2 µM)
# In short: as §1
# Sorafenib + Vorinostat = compound: CNC(=O)c1cc(Oc2ccc(NC(=O)Nc3ccc(Cl)c(C(F)(F)F)c3)cc2)ccn1 [Sorafenib] + O=C(CCCCCCC(=O)Nc1ccccc1)NO [Vorinostat] (partner 1 µM)
# In short: as §1
# Sorafenib + Phenformin = compound: CNC(=O)c1cc(Oc2ccc(NC(=O)Nc3ccc(Cl)c(C(F)(F)F)c3)cc2)ccn1 [Sorafenib] + N=C(N)NC(=N)NCCc1ccccc1 [Phenformin] (partner 250 µM)
# In short: as §1
Cell Line,relative viability (Sorafenib + Bortezomib; first compound 0.08 µM),relative viability (Sorafenib + Bortezomib; first compound 0.253 µM),relative viability (Sorafenib + Bortezomib; first compound 2.53 µM),relative viability (Sorafenib + Bortezomib; first compound 8 µM),relative viability (Sorafenib + Luminespib; first compound 0.08 µM),relative viability (Sorafenib + Luminespib; first compound 0.253 µM),relative viability (Sorafenib + Luminespib; first compound 2.53 µM),relative viability (Sorafenib + Luminespib; first compound 8 µM),relative viability (Sorafenib + Alpelisib; first compound 0.08 µM),relative viability (Sorafenib + Alpelisib; first compound 0.253 µM),relative viability (Sorafenib + Alpelisib; first compound 2.53 µM),relative viability (Sorafenib + Alpelisib; first compound 8 µM),relative viability (Sorafenib + Vorinostat; first compound 0.08 µM),relative viability (Sorafenib + Vorinostat; first compound 0.253 µM),relative viability (Sorafenib + Vorinostat; first compound 2.53 µM),relative viability (Sorafenib + Vorinostat; first compound 8 µM),relative viability (Sorafenib + Phenformin; first compound 0.08 µM),relative viability (Sorafenib + Phenformin; first compound 0.253 µM),relative viability (Sorafenib + Phenformin; first compound 2.53 µM),relative viability (Sorafenib + Phenformin; first compound 8 µM)
NCI-H1651,0.995,0.855,0.92,0.801,0.965,0.778,0.958,0.319,0.979,0.981,0.996,0.547,0.504,0.461,0.6,0.542,0.389,0.307,0.318,0.148
SK-LU-1,1.16,1.07,1.11,0.735,0.181,0.181,0.2,0.179,0.987,–,0.868,0.242,0.824,–,0.719,0.455,0.641,0.484,0.487,0.195
CAL-12T,1.04,0.689,1.24,0.465,0.14,0.363,0.347,0.147,1.18,1.09,0.971,0.705,0.723,0.722,0.72,0.494,0.641,0.54,0.583,0.202
EMC-BAC-2,1.06,0.917,1.07,1.02,1.21,1.08,1.17,0.812,–,0.73,0.707,0.702,0.481,–,0.546,0.479,0.504,0.464,0.507,0.316
NCI-H838,0.875,–,1.15,0.651,0.346,0.33,0.402,0.243,1.08,1.1,1.15,0.905,–,0.798,0.882,0.503,0.749,–,0.948,0.388
NCI-H460,1.01,1.02,0.972,–,0.0329,0.0278,0.0236,0.0147,0.594,0.643,0.566,0.103,0.748,0.582,0.611,0.363,0.528,0.495,0.462,0.046
HCC-15,0.996,0.83,0.912,0.807,0.533,0.26,0.338,0.185,0.86,0.932,0.955,0.575,0.973,0.764,0.83,0.576,0.501,0.403,0.442,0.212
ABC-1,0.36,0.253,0.321,0.336,0.815,0.378,0.538,0.158,1.01,0.945,1.11,1.03,1.23,0.811,1.22,0.482,0.218,0.234,0.247,0.233
LCLC-103H,1.08,1.23,1.05,1.08,0.964,0.939,1.03,0.837,1.06,0.991,0.893,1.18,0.813,0.75,0.778,0.737,0.401,0.309,0.336,0.344
PC-14,0.911,0.89,0.827,0.316,0.138,0.138,0.19,0.138,1,0.848,0.854,0.753,0.833,0.721,0.641,0.481,0.632,0.429,0.696,0.591
NCI-H727,0.775,0.618,0.699,0.516,0.528,0.344,0.501,0.221,0.623,0.579,0.702,0.326,1.38,1.11,1.23,1.25,0.634,0.416,0.439,0.507
NCI-H2085,1.09,0.824,1.01,0.91,0.483,0.414,0.424,0.448,0.998,0.878,0.882,0.777,0.852,0.795,1.01,0.78,–,0.623,0.756,0.48
PC-3 [JPC-3],0.875,0.726,0.818,0.928,0.67,0.687,0.717,0.637,1.07,0.987,1.08,1.12,0.886,0.555,1.1,0.883,0.512,0.458,0.492,0.453
NCI-H2126,1.14,1.17,1.09,1.16,0.981,–,0.882,0.864,0.788,0.743,0.855,–,0.88,0.747,0.828,0.799,0.539,0.529,0.603,0.501
NCI-H2347,1.13,0.997,1.02,0.868,0.625,0.433,0.763,0.62,1.2,0.89,–,1,0.694,0.543,0.524,0.52,0.519,0.398,0.351,0.326
RERF-LC-KJ,1.12,0.992,1.17,0.992,1.2,1.26,1.24,0.404,1.03,0.989,0.951,0.906,0.723,0.608,0.738,0.665,0.437,0.435,0.463,0.394

Cell Line,relative viability (Sorafenib + Bortezomib; first compound 0.08 µM),relative viability (Sorafenib + Bortezomib; first compound 0.253 µM),relative viability (Sorafenib + Bortezomib; first compound 2.53 µM),relative viability (Sorafenib + Bortezomib; first compound 8 µM),relative viability (Sorafenib + Luminespib; first compound 0.08 µM),relative viability (Sorafenib + Luminespib; first compound 0.253 µM),relative viability (Sorafenib + Luminespib; first compound 2.53 µM),relative viability (Sorafenib + Luminespib; first compound 8 µM),relative viability (Sorafenib + Alpelisib; first compound 0.08 µM),relative viability (Sorafenib + Alpelisib; first compound 0.253 µM),relative viability (Sorafenib + Alpelisib; first compound 2.53 µM),relative viability (Sorafenib + Alpelisib; first compound 8 µM),relative viability (Sorafenib + Vorinostat; first compound 0.08 µM),relative viability (Sorafenib + Vorinostat; first compound 0.253 µM),relative viability (Sorafenib + Vorinostat; first compound 2.53 µM),relative viability (Sorafenib + Vorinostat; first compound 8 µM),relative viability (Sorafenib + Phenformin; first compound 0.08 µM),relative viability (Sorafenib + Phenformin; first compound 0.253 µM),relative viability (Sorafenib + Phenformin; first compound 2.53 µM),relative viability (Sorafenib + Phenformin; first compound 8 µM)
201T,1.1,1.07,1.19,1.18,1.06,1.12,–,1.04,1,1.05,1.13,–,1.01,0.946,0.963,0.926,–,0.423,0.42,0.432
NCI-H1915,1.01,0.766,0.923,0.99,0.848,0.678,–,0.751,0.998,0.922,0.909,1.07,0.444,0.364,0.355,0.582,0.357,0.33,0.359,0.341
NCI-H1734,1.01,1.14,0.885,0.346,0.235,0.131,0.186,0.161,0.685,0.654,0.633,0.568,0.936,0.708,0.752,0.631,0.459,0.362,0.411,0.236
LOU-NH91,0.548,0.454,0.552,0.537,0.306,0.359,0.418,0.336,0.896,0.791,0.885,0.589,1.03,0.881,1.11,0.493,0.784,0.678,0.73,0.489
HARA,1.18,1.02,1.16,1.02,0.936,0.696,0.609,0.526,0.991,0.773,0.856,0.797,0.517,0.6,0.512,0.569,0.498,0.456,0.41,0.307
NCI-H520,0.828,0.665,0.599,0.232,0.21,0.216,0.232,0.218,0.963,0.89,0.902,0.526,0.673,0.597,0.606,0.27,0.673,0.316,0.574,0.253
HCC-44,0.814,0.805,0.865,0.699,1.09,1.01,1.02,0.992,0.833,0.785,0.793,0.649,1.03,1.05,1.09,1.16,0.269,0.153,0.311,0.207
NCI-H596,1.02,–,1.19,1.14,0.889,1.04,0.977,0.911,0.471,0.447,0.521,0.509,0.748,0.547,0.929,0.717,0.787,0.587,0.665,0.86
NCI-H650,0.759,0.581,0.746,0.677,0.809,0.639,0.605,0.677,1.31,0.96,0.952,0.963,0.855,0.257,0.371,0.449,0.45,0.399,0.461,0.428
EKVX,1.19,0.879,0.962,0.994,0.963,0.864,0.808,0.854,1.09,0.886,0.872,0.828,0.718,0.723,0.832,0.803,0.243,0.24,0.24,0.201
EPLC-272H,0.945,0.872,0.959,0.696,0.26,0.303,0.263,0.335,0.928,0.986,1.15,0.898,0.524,0.436,0.429,0.388,0.402,0.264,0.294,0.315
NCI-H2087,0.76,0.708,0.849,0.454,0.192,0.183,0.236,0.123,0.88,0.81,0.924,0.341,0.615,0.545,0.474,0.209,0.467,0.403,0.389,0.14
NCI-H322M,1.3,1.18,–,1.55,1.03,1.03,1.24,1.06,0.815,0.916,0.877,0.84,1.02,0.886,1.02,1.17,0.813,0.67,0.807,0.795
LXF-289,0.98,0.997,1.03,0.926,0.706,0.648,0.634,0.588,1.09,1.04,1.05,1.02,0.758,0.757,0.848,0.681,0.553,0.513,0.541,0.476
HCC-827,1.06,1.04,0.929,–,0.709,0.525,0.59,0.638,1.07,–,0.988,0.826,0.837,0.572,0.844,0.667,0.447,0.399,0.447,0.424
SW 1573,1.22,1.05,0.989,0.286,0.239,0.255,0.166,0.117,0.879,0.757,0.805,0.578,0.662,0.618,0.366,0.425,0.446,0.403,0.388,0.0803
